# Source: paper PMC7542351, “Construction of a new T7 promoter compatible Escherichia coli Nissle 1917 strain for recombinant production of heme-dependent proteins” (Microbial Cell Factories, 2020)
# Molecular target: T1, Cph1 (Synechocystis sp. PCC 6803, UniProt Q55168)
# T1 construct: His6 tag; ~80 kDa; pET-cph1; co-produced with HO1 and PcyA in E. coli; cell-free lysate
# Assay: red/far-red induced difference spectroscopy of holo-phytochrome
# Type: biochemical
# Conditions: cell-free lysate; pH 8.0, 25 °C; 630 nm / 730 nm light; PCB made in vivo by co-expressed HO1 and PcyA, and 40 µM PCB added; covalent
# T1 sequence (Q55168 whole entry): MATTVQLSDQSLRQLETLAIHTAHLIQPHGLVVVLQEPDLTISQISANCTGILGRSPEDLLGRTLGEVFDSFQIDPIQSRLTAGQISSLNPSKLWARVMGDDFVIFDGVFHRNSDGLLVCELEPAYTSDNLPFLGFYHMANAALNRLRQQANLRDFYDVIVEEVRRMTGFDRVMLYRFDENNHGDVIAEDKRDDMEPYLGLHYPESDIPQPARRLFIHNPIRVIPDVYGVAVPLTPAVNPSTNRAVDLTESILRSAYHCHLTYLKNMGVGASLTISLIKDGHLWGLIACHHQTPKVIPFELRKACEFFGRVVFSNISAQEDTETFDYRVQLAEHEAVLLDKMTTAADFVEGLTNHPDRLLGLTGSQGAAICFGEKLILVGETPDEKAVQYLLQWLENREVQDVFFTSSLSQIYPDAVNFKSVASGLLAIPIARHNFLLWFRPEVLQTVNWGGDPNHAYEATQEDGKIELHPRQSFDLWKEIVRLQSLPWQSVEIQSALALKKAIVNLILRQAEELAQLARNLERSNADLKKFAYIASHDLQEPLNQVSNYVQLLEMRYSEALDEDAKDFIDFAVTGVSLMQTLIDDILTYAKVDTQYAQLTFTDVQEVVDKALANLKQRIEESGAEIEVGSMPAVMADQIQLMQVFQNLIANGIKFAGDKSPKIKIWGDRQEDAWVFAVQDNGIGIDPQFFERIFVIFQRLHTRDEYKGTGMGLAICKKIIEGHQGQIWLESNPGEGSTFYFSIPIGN
compound,measurement,value
CC=C1C(=Cc2[nH]c(C=C3N=C(C=C4NC(=O)C(CC)=C4C)C(C)=C3CCC(=O)O)c(CCC(=O)O)c2C)NC(=O)C1C (stereo not shown) [phycocyanobilin],red/far-red induced difference spectroscopy of holo-phytochrome,Comparison of difference spectra before and after incubation with PCB indicated a higher saturation
